Each structure is given as a SMILES string.

Broadly, the LD50 is the dose expected to kill half of the subjects tested.

One data set addresses Plasmin (Homo sapiens, UniProt P00747). Kind of data set: Anti-plasmin activity (inhibition of TAME hydrolysis). It is filed as biochemical. Conditions: read-out: ID50, plasmin. An outline of the steps:
(§1)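 Inhibition of enzymatic TAME (tosylarginine methyl ester) hydrolysis, per Muramatsu et al. Values are ID50, the molar concentration of compound inhibiting 50% of each enzyme's TAME-hydrolysing activity.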

The test system of a further data set is Kallikrein. Kind of data set: Anti-kallikrein activity (inhibition of TAME hydrolysis). It is filed as biochemical. Conditions: read-out: ID50, kallikrein. A digest of the protocol: as §1
The target of another data set is Thrombin (Homo sapiens, UniProt P00734). Description: biochemical. Particulars: TAME hydrolysis; read-out: ID50, thrombin.
In the next data set the test system is complement. Description: Inhibition of complement mediated hemolysis. It is filed as cell-based.
A short description of data set [1]: Toxicity, median lethal dose (LD50). Conditions: in vivo.
The target of a further data set is T1, Trypsin (Bos taurus, UniProt P00760).
T1 sequence (P00760 24-246): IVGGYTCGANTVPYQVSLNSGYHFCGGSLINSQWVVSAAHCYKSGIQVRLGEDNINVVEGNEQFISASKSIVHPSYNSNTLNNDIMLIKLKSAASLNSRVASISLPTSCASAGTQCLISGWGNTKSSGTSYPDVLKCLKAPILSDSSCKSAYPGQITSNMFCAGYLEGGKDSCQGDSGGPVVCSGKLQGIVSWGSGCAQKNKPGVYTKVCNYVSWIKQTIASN
Kind of data set: Anti-trypsin activity (inhibition of TAME hydrolysis). Conditions: read-out: ID50, trypsin. It is filed as biochemical. A digest of the protocol: as §1

The next data set relates to Masugi nephritis. Kind of data set: Therapeutic experiment on Masugi's nephritis (protein content of urine). It is filed as in vivo. Particulars: rats; for Percentage inhibition (decrease in protein content of urine): methanesulfonate, oral 100 mg/kg twice a day, eight days. The text has this:
The protein content of the animal's urine is used as the parameter for the progress of Masugi nephritis. […] From the result, it may be said that the compound of this invention having a Cl-esterase inhibitory activity is useful as a remedy for the glomerulonephritis and is also useful as a remedy for autoimmune diseases inclusive of glomerulonephritis.
Experimental nephritis were induced in rats by intravenous injection of nephrotoxin prepared according to the method of Shibata et al. ["Experimental Immunoallergy.", p. 664 (1971), Bunkodo, Tokyo]. Each member of the medicine administered group had been orally administered with methanesulfonate of Compound No. 69 at a dose rate of 100 mg/kg body weight, twice a day, for eight consecutive days. On the second day from the beginning of medicine administration, nephrotoxin was intravenously administered. The effectiveness was evaluated by determining the difference in protein content of urine between the nephritic group (control group) and the medicine administered group on the 6th day (5th day after the administration of nephrotoxin) and 9th day from the beginning of medicine administration.
The percentage inhibition indicates the degree of decrease in protein content of urine of the medicine administered group as compared with the control group.

A further data set deals with T2, Cls (Homo sapiens, UniProt P09871).
T2 sequence (P09871 438-688 limits assumed): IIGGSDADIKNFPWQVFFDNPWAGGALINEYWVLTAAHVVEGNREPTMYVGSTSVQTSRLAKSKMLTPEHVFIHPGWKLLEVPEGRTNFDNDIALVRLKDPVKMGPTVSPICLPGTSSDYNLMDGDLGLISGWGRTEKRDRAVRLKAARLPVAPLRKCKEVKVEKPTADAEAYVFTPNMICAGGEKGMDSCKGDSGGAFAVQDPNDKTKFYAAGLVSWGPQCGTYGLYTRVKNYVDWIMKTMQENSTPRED
T2 sequence (P09871 16-437 limits assumed): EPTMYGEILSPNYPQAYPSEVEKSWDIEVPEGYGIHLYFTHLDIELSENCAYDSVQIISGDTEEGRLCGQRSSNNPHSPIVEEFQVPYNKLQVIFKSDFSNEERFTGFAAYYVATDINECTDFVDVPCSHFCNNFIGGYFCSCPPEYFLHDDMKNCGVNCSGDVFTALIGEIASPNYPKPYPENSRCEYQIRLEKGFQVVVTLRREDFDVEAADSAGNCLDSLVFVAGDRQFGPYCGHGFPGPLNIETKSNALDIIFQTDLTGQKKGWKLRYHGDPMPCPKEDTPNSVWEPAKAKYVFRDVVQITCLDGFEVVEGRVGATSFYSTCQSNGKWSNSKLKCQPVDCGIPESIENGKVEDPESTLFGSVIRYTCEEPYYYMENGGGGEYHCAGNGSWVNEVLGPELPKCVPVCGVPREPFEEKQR
Description: Anti-Cl esterase activity, Cls (ATEE hydrolysis). Conditions: hydrolysis of ATEE; read-out: Anti-Cl activity, Cls (50% inhibition). It is filed as biochemical. Here is the method: The anti-Cl esterase (Clr, Cls) activity was determined according to the method of Okamura et al. [K. Okamura, M. Muramatsu and B. Fujii, Biochem. Biophys. […] The figures in Table 2 have the following meanings:
Cls: Molar concentration of the test compound which inhibits 50% of the ability of Cls to hydrolyse ATEE (acetyltyrosin ethyl ester).

A further data set deals with T3, Clr (Homo sapiens, UniProt P00736).
T3 sequence (P00736 464-705 limits assumed): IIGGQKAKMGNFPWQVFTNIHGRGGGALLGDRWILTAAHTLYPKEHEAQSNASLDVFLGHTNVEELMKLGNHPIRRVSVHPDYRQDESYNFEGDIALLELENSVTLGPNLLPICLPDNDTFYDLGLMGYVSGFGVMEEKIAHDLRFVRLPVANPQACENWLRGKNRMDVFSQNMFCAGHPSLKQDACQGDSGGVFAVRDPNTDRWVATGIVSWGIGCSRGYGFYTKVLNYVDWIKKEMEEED
T3 sequence (P00736 18-463 limits assumed): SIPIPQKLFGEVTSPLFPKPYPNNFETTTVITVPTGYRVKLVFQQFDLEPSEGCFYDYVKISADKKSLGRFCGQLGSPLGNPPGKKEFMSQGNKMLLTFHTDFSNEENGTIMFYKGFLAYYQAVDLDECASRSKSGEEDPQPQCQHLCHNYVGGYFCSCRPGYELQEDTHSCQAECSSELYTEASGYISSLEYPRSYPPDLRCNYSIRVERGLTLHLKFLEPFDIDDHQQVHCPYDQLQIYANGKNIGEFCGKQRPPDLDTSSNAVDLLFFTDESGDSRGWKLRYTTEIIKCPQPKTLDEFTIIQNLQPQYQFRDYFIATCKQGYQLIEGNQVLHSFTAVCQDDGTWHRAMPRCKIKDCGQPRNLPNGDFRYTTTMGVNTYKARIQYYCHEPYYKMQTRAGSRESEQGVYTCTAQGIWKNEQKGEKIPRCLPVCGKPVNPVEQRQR
Kind of data set: Anti-Cl esterase activity, Clr (AAME hydrolysis). It is filed as biochemical. Particulars: hydrolysis of AAME; read-out: Anti-Cl activity, Clr (ID50). The procedure:
The anti-Cl esterase ([…]) activity was determined according to the method of Okamura et al. [K. Okamura, M. Muramatsu and B. Fujii, Biochem. Biophys.

Plasmin, sequence (P00747 581-810 limits assumed, species assumed): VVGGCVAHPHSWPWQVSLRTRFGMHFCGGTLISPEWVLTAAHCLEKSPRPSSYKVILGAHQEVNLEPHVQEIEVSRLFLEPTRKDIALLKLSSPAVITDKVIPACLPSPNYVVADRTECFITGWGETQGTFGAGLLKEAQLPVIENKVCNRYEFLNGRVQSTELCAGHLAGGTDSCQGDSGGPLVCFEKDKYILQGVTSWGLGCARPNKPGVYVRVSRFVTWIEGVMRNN
Plasmin, sequence (P00747 97-580 limits assumed, species assumed): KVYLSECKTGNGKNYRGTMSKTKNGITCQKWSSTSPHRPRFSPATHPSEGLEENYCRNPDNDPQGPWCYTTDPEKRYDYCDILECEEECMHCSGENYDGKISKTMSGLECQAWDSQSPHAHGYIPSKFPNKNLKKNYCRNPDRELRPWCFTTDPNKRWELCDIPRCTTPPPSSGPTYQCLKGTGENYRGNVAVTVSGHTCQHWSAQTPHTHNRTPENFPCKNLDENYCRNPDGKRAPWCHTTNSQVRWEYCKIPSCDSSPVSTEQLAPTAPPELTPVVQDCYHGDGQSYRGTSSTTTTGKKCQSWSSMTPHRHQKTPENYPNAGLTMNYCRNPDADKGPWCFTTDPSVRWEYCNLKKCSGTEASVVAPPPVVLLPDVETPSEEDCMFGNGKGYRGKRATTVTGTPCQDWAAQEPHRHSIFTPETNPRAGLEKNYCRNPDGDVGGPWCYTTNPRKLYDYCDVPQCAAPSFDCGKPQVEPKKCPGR

As for `N=C(N)Nc1ccc(C(=O)Oc2ccc(C(=N)N)cc2C(=O)c2ccccc2)cc1` [Compound 69, 4-amidino-2-benzoylphenyl 4-guanidinobenzoate], the IC50 at Plasmin amounted to 2 µM; with Kallikrein it was 0.4 µM; on Thrombin it was 0.2 µM; on Trypsin it was 0.08 µM; at Cls, 0.4 µM; at Clr it was 2 µM. The “Inhibition of complement mediated hemolysis (%)” value with complement (compound at 1 × 10^-4) turned out to be 100%; with complement (compound at 1 × 10^-5), 99.6%; in the data set with complement (compound at 1 × 10^-6), 86.5%; in the data set on complement (compound at 1 × 10^-7) it was 7.2%. Besides, the LD50 in [1] (ip) turned out to be 192 mg/kg; in data set [1] (po) it was 1700 mg/kg. Besides, the entries for the “Percentage inhibition (decrease in protein content of urine)” value with Masugi nephritis (5th day) and in the data set on Masugi nephritis (8th day) were 81% and 39%, respectively. Also, the “protein content of urine, Masugi nephritis” value with Masugi nephritis (result in words) was “distinctly decreased the protein content of urine”.

The values are drawn from US4570006A, “Amidine compound, process for producing same and anti-complement agent comprising same” (Torii & Co. Ltd., priority 1981, dated 1986).
